Laboratory results published in US20140162980A1, “NOVEL MICROBIOCIDAL DIOXIME ETHER DERIVATIVES” (SYNGENTA CROP PROTECTION LLC, priority 2010, published 2014).

Legend:
[1] = tested on: Plasmopara viticola; experiment: whole plant or invertebrate; format: in vivo; conditions: foliar, read-out: control of Plasmopara viticola (percent disease control compared to untreated)
[2] = tested on: Phaeosphaeria nodorum (Septoria nodorum); experiment: Phaeosphaeria nodorum (Septoria nodorum) / wheat / leaf disc preventative (glume blotch); format: in vivo; conditions: Parastagonospora nodorum, foliar, wheat leaf segments cv Kanzler, inoculated 2 days after application, assessed 5-7 days after application, read-out: control of Phaeosphaeria nodorum (percent disease control compared to untreated)
Procedure: Phaeosphaeria Nodorum (Septoria nodorum)/Wheat/Leaf Disc Preventative (Glume Blotch): Wheat leaf segments cv Kanzler were placed on agar in a 24-well plate and sprayed with formulated test compound diluted in water at an application rate of 200 ppm. The leaf disks are inoculated with a spore suspension of the fungus 2 days after application. The inoculated test leaf disks are incubated at 20° C. and 75% relative humidity under a light regime of 12/12 h (light/dark) in a climate cabinet and the activity of a compound is assessed as percent disease control compared to untreated when an appropriate level of disease damage appears in untreated check leaf disks (5-7 days after application).

[3] = tested on: Puccinia recondita f. sp. tritici; experiment: Puccinia recondita f. sp. tritici / wheat / leaf disc curative (brown rust); format: in vivo; conditions: foliar, 200 ppm applied 1 day after inoculation, wheat leaf segments cv Kanzler, assessed 6-8 days after application, read-out: control of Puccinia recondita f. sp. tritici, curative (percent disease control compared to untreated)
Procedure: Puccinia Recondita f. Sp. Tritici/Wheat/Leaf Disc Curative (Brown Rust): Wheat leaf segments cv Kanzler were placed on agar in 24-well plates. The leaf segments were inoculated with a spore suspension of the fungus. The plates were stored in darkness at 19° C. and 75% relative humidity. The formulated test compound diluted in water was applied at an application rate of 200 ppm 1 day after inoculation.

[4] = tested on: Pyrenophora teres; experiment: Pyrenophora teres / barley / leaf disc preventative (net blotch); format: in vivo; conditions: foliar, barley leaf segments cv Hasso, inoculated two days after application, assessed 5-7 days after application, read-out: control of Pyrenophora teres (disease control compared to untreated)
Procedure: Pyrenophora Teres/Barley/Leaf Disc Preventative (Net Blotch): Barley leaf segments cv Hasso are placed on agar in a 24-well plate and sprayed with formulated test compound diluted in water at an application rate of 200 ppm. The leaf segments are inoculated with a spore suspension of the fungus two days after application of the test solution. The inoculated leaf segments are incubated at 20° C. and 65% relative humidity under a light regime of 12/12 h (light/dark) in a climate cabinet and the activity of a compound is assessed as disease control compared to untreated when an appropriate level of disease damage appears in untreated check leaf segments (5-7 days after application).

[5] = tested on: Blumeria graminis f. sp. tritici (Erysiphe graminis f. sp. tritici); experiment: Blumeria graminis f. sp. tritici / wheat / leaf disc preventative (powdery mildew on wheat); format: in vivo; conditions: foliar, wheat leaf segments cv. Kanzler, inoculated 1 day after application, assessed 6-8 days after application, read-out: control of Blumeria graminis (percent disease control compared to untreated)
Procedure: Blumeria Graminis f. Sp. Tritici (Erysiphe Graminis f. Sp. Tritici)/Wheat/Leaf Disc Preventative (Powdery Mildew on Wheat):
Wheat leaf segments cv. Kanzler were placed on agar in a 24-well plate and sprayed with the formulated test compound diluted in water at an application rate of 200 ppm. The leaf disks were inoculated by shaking powdery mildew infected plants above the test plates 1 day after application. The inoculated leaf disks were incubated at 20° C. and 60% relative humidity under a light regime of 24 h darkness followed by 12 h/12 h (dark/light) in a climate chamber and the activity of a compound was assessed as percent disease control compared to untreated when an appropriate level of disease damage appears on untreated check leaf segments (6-8 days after application). The following compounds gave at least 80% control of Blumeria graminis: […]

[6] = tested on: Botryotinia fuckeliana (Botrytis cinerea); experiment: Botryotinia fuckeliana (Botrytis cinerea) / liquid culture (gray mould); format: cell-based; conditions: Vogels broth, 24° C., 3-4 days after application, read-out: control of Botryotinia fuckeliana (inhibition of growth, photometrically)
Procedure: Botryotinia Fuckeliana (Botrytis cinerea)/Liquid Culture (Gray Mould): Conidia of the fungus from cryogenic storage were directly mixed into nutrient broth (Vogels broth). After placing a DMSO solution of test compound into a 96-well microtiter plate at an application rate 200 ppm, the nutrient broth containing the fungal spores was added. The test plates were incubated at 24° C. and the inhibition of growth was determined photometrically 3-4 days after application.

[7] = tested on: Thanatephorus cucumeris (Rhizoctonia solani); experiment: Thanatephorus cucumeris (Rhizoctonia solani) / liquid culture (foot rot, damping-off); format: cell-based; conditions: PDB potato dextrose broth, 24° C., 3-4 days after application, read-out: control of Thanatephorus cucumeris (inhibition of growth, photometrically)
Procedure: Thanatephorus Cucumeris (Rhizoctonia solani)/Liquid Culture (Foot Rot, Damping-Off): Mycelia fragments of a newly grown liquid culture of the fungus are directly mixed into nutrient broth (PDB potato dextrose broth). After placing a DMSO solution of the test compounds into a 96-well microtiter plate at an application rate 200 ppm, the nutrient broth containing the fungal material was added. The test plates were incubated at 24° C. and the inhibition of growth was determined photometrically 3-4 days after application.

[8] = tested on: Puccinia recondita f. sp. tritici; experiment: Puccinia recondita f. sp. tritici / wheat / leaf disc preventative (brown rust); format: in vivo; conditions: foliar, wheat leaf segments cv Kanzler, inoculated 1 day after application, assessed 7-9 days after application, read-out: control of Puccinia recondita f. sp. tritici, preventative (percent disease control compared to untreated)
Procedure: Puccinia Recondita f. Sp. Tritici/Wheat/Leaf Disc Preventative (Brown Rust): Wheat leaf segments cultivated variety (cv) Kanzler were placed on agar in 24-well plates and sprayed with formulated test compound diluted in water at an application rate of 200 ppm. The leaf disks were inoculated with a spore suspension of the fungus 1 day after application. The inoculated leaf segments were incubated at 19° C. and 75% relative humidity under a light regime of 12/12 h (light/dark) in a climate cabinet and the activity of a compound was assessed as percent disease control compared to untreated when an appropriate level of disease damage appears in untreated check leaf segments (7-9 days after application).

[9] = tested on: Alternaria solani; experiment: Alternaria solani / tomato / leaf disc (early blight); format: in vivo; conditions: foliar, tomato leaf disks cv. Baby, inoculated 2 days after application, assessed 5-7 days after application, read-out: control of Alternaria solani (percent disease control compared to untreated)
Procedure: Alternaria Solani/Tomato/Leaf Disc (Early Blight): Tomato leaf disks cv. Baby are placed on agar in multiwell plates (24-well format) and sprayed with the formulated test compound diluted in water at an application rate of 200 ppm. The leaf disks are inoculated with a spore suspension of the fungus 2 days after application. The inoculated leaf disks are incubated at 23° C./21° C.

[10] = tested on: Pythium ultimum; experiment: Pythium ultimum / liquid culture (seedling damping off); format: cell-based; conditions: Globisporangium ultimum, PDB potato dextrose broth, 24° C., 2-3 days after application, read-out: control of Pythium ultimum (inhibition of growth, photometrically)
Procedure: Pythium Ultimum/Liquid Culture (Seedling Damping Off): Mycelia fragments and oospores of a newly grown liquid culture of the fungus were directly mixed into nutrient broth (PDB potato dextrose broth). After placing a DMSO solution of test compound into a 96 well microtiter plate at an application rate 200 ppm, the nutrient broth containing the fungal mycelia/spore mixture was added. The test plates were incubated at 24° C. and the inhibition of growth was determined photometrically 2-3 days after application.

[11] = tested on: Phytophthora infestans; experiment: whole plant or invertebrate; format: in vivo; conditions: in Solanum lycopersicum, foliar, read-out: control of Phytophthora infestans (percent disease control compared to untreated)
[12] = tested on: Magnaporthe grisea (Pyricularia oryzae); experiment: whole plant or invertebrate; format: in vivo; conditions: foliar, read-out: control of Magnaporthe grisea (percent disease control compared to untreated)
[13] = tested on: Sclerotinia sclerotiorum; experiment: Sclerotinia sclerotiorum / liquid culture (cottony rot); format: cell-based; conditions: PDB potato dextrose broth, 24° C., 3-4 days after application, read-out: control of Sclerotinia sclerotiorum (inhibition of growth, photometrically)
Procedure: Sclerotinia Sclerotiorum/Liquid Culture (Cottony Rot) Mycelia fragments of a newly grown liquid culture of the fungus are directly mixed into nutrient broth (PDB potato dextrose broth). After placing a (DMSO) solution of test compound into a microtiter plate at an application rate 200 ppm (96-well format) the nutrient broth containing the fungal material is added. The test plates are incubated at 24° C. and the inhibition of growth is determined photometrically 3-4 days after application.

Cc1ccc2c(n1)/C(=N/OCCCO/N=C1\CCCc3c(-c4ccccc4)cc(C)nc31)CCC2 [P.31]
≥ 80%: pest or weed control at 200 ppm [1] | pest or weed control at 200 ppm [2] | pest or weed control at 200 ppm [3] | pest or weed control at 200 ppm [4] | pest or weed control at 200 ppm [5] | inhibition at 200 ppm [6] | inhibition at 200 ppm [7] | pest or weed control at 200 ppm [8] | pest or weed control at 200 ppm [9] | inhibition at 200 ppm [10]

C=C(CO/N=C1\CCCc2ccc(C)nc21)CO/N=C1\CCCc2ccc(C)nc21 [P.07]
≥ 80%: pest or weed control at 200 ppm [2] | pest or weed control at 200 ppm [3] | pest or weed control at 200 ppm [4] | pest or weed control at 200 ppm [5] | inhibition at 200 ppm [6] | pest or weed control at 200 ppm [8] | pest or weed control at 200 ppm [9] | inhibition at 200 ppm [10]

Cc1ccc2c(n1)/C(=N/OCCCO/N=C1\CCCc3c(C)cc(C)nc31)CCC2 [P.30]
≥ 80%: pest or weed control at 200 ppm [1] | pest or weed control at 200 ppm [2] | pest or weed control at 200 ppm [11] | pest or weed control at 200 ppm [3] | pest or weed control at 200 ppm [4] | pest or weed control at 200 ppm [5] | pest or weed control at 200 ppm [12] | inhibition at 200 ppm [6] | inhibition at 200 ppm [7] | pest or weed control at 200 ppm [8] | pest or weed control at 200 ppm [9] | inhibition at 200 ppm [10]

Cc1ccc2c(n1)/C(=N/OCCCO/N=C1\CCCc3ccc(C)nc31)CCC2 [P.05]
≥ 80%: pest or weed control at 200 ppm [2] | pest or weed control at 200 ppm [11] | pest or weed control at 200 ppm [3] | pest or weed control at 200 ppm [4] | pest or weed control at 200 ppm [5] | inhibition at 200 ppm [6] | pest or weed control at 200 ppm [8] | pest or weed control at 200 ppm [9] | inhibition at 200 ppm [10]

Cc1ccc2c(n1)/C(=N/OCCCO/N=C1\CCCc3c(C(F)F)cc(C)nc31)CCC2 [P.46]
≥ 80%: inhibition at 200 ppm [13] | pest or weed control at 200 ppm [2] | pest or weed control at 200 ppm [3] | pest or weed control at 200 ppm [4] | pest or weed control at 200 ppm [5] | pest or weed control at 200 ppm [12] | inhibition at 200 ppm [6] | pest or weed control at 200 ppm [8] | inhibition at 200 ppm [10]

CCC(CO/N=C1\CCCc2ccc(C)nc21)CO/N=C1\CCCc2ccc(C)nc21 [P.10]
≥ 80%: pest or weed control at 200 ppm [1] | pest or weed control at 200 ppm [2] | pest or weed control at 200 ppm [11] | pest or weed control at 200 ppm [3] | pest or weed control at 200 ppm [4] | pest or weed control at 200 ppm [5] | inhibition at 200 ppm [6] | pest or weed control at 200 ppm [8] | pest or weed control at 200 ppm [9] | inhibition at 200 ppm [10]

CCOc1cc(C)nc2c1CCC/C2=N\OCCCO/N=C1\CCCc2ccc(C)nc21 [P.32]
≥ 80%: pest or weed control at 200 ppm [1] | pest or weed control at 200 ppm [2] | pest or weed control at 200 ppm [11] | pest or weed control at 200 ppm [4] | pest or weed control at 200 ppm [5] | pest or weed control at 200 ppm [12] | inhibition at 200 ppm [6] | pest or weed control at 200 ppm [8]

Cc1ccc2c(n1)/C(=N/OCC(C)(C)CO/N=C1\CCCc3ccc(C)nc31)CCC2 [P.02]
≥ 80%: pest or weed control at 200 ppm [2] | pest or weed control at 200 ppm [11] | pest or weed control at 200 ppm [3] | pest or weed control at 200 ppm [4] | pest or weed control at 200 ppm [5] | inhibition at 200 ppm [6] | inhibition at 200 ppm [7] | pest or weed control at 200 ppm [8] | inhibition at 200 ppm [10]

Cc1ccc2c(n1)/C(=N/OC[Si](C)(C)CO/N=C1\CCCc3ccc(C)nc31)CCC2 [P.20]
≥ 80%: pest or weed control at 200 ppm [2] | pest or weed control at 200 ppm [3] | pest or weed control at 200 ppm [4] | pest or weed control at 200 ppm [5] | inhibition at 200 ppm [6] | inhibition at 200 ppm [7] | pest or weed control at 200 ppm [8] | pest or weed control at 200 ppm [9] | inhibition at 200 ppm [10]

Cc1ccc2c(n1)/C(=N/OCC(C)(C)CO/N=C1\CCCc3cccnc31)CCC2 [P.23]
≥ 80%: pest or weed control at 200 ppm [2] | pest or weed control at 200 ppm [11] | pest or weed control at 200 ppm [3] | pest or weed control at 200 ppm [4] | pest or weed control at 200 ppm [5] | pest or weed control at 200 ppm [8] | inhibition at 200 ppm [10]

Cc1ccc2c(n1)/C(=N/OCC(C)CO/N=C1\CCCc3ccc(C)nc31)CCC2 (stereo not shown) [P.09]
≥ 80%: pest or weed control at 200 ppm [2] | pest or weed control at 200 ppm [11] | pest or weed control at 200 ppm [3] | pest or weed control at 200 ppm [4] | pest or weed control at 200 ppm [5] | inhibition at 200 ppm [6] | pest or weed control at 200 ppm [8] | pest or weed control at 200 ppm [9] | inhibition at 200 ppm [10]
